Counter-ions that a name gives are not always drawn. Like-named read-outs stand apart in the source and are kept apart here.
Legend:
[1] = system: human oral squamous carcinoma; parameters: method as in PMID 32858984, PMID 31892556; settings: cited from earlier work
HL-60 cells = assay: Differential DNA staining (DNS) cytotoxicity assay, HL-60 cells; assay type: cell-based; settings: Homo sapiens
Method: (§1) The method used for generating the data of human acute lymphocytic leukemia (CEM) and human acute promyelocytic leukemia (HL-60) cells in Table 4 has been described previously. In brief, the cells were cultured in media supplemented with 10% FBS and antibiotics. […] The CC50 values of the compounds listed in Table 4 were obtained by linear interpolation equations [28, 29].

[2] = system: HCT116 and HT29 colon cancer cells; assay: Average over HCT116 and HT29 colon cancer cells; assay type: cell-based, human; settings: for IC50: Homo sapiens, average of HCT116 and HT29, unit printed only for the single cell-line columns; for Average SI: average of SI for HCT116 and HT29; for PSE (potency-selectivity expression): reciprocal of average IC50 x average SI x 100, colon cells
Method: (§2) The culture medium was supplemented with 10% heat-inactivated fetal bovine serum (FBS) and 1% penicillin–streptomycin antibiotics. The time of the bioassays was 48 h. The determinations were undertaken in triplicate on three different occasions.

[3] = system: HSC-3 squamous cell carcinoma cells; assay: MTT cytotoxicity against HSC-3 squamous cell carcinoma; assay type: cell-based, human; settings: for CC50: Homo sapiens, HSC-3, 48 h, MTT, read-out: HSC-3 CC50; for HSC-3 SI: average CC50 HGF/HPLF/HPC divided by CC50 HSC-3
Method: (§3) The method for evaluating 2a–f and 3a–e against human oral squamous cell carcinoma (OSCC) cell lines (Ca9-22, HSC-2, HSC-3, HSC-4) and human non-malignant oral cells [human gingival fibroblast (HGF), human periodontal ligament fibroblast (HPLF), and human pulp cell (HPC)] have been reported previously, except the length of time of this bioassay was extended from 24 h to 48 h. In brief, different quantities of the compounds were incubated with the cells in Dulbecco’s modified eagle medium (DMEM), which was supplemented with 10% FBS and antibiotics. The cell viability was determined by the 3-(4,5-dimethylthiazol-2-yl)-2,5-diphenyl-2H-tetrazolium bromide (MTT) method as summarized previously (Figure 4).

[4] = system: Ca9-22, HSC-2, HSC-3, and HSC-4 squamous cell carcinoma cell lines; assay: Average over Ca9-22, HSC-2, HSC-3 and HSC-4 OSCC cell lines; assay type: cell-based, human; settings: for CC50: average of four OSCC cell lines, read-out: Average CC50; for Average SI: average of SI for four OSCC cell lines; for PSE (potency-selectivity expression): reciprocal of average CC50 (OSCC) x average SI x 100
Method: as §3

[5] = system: Ca9-22 squamous cell carcinoma cells; assay: MTT cytotoxicity against Ca9-22 squamous cell carcinoma; assay type: cell-based, human; settings: for CC50: Homo sapiens, Ca9-22, 48 h, MTT, read-out: Ca9-22 CC50; for Ca9-22 SI: average CC50 HGF/HPLF/HPC divided by CC50 Ca9-22
Method: as §3

Ca9-22 cells = assay: Western blot for caspase 3 activation in Ca9-22 cells; assay type: cell-based, human; settings: 3 μM, 24 h
Method: (§4) Apoptosis induction in Ca9-22 cells was evaluated by cell cycle analysis and Western blot analysis as described previously (Figure 5). Briefly, for the cell cycle analysis, cells were treated for 24 h with the test samples. Cells were then fixed, digested with RNase A, stained with propidium iodide, filtered through Falcon® cell trainers (Corning Inc., Corning, NY, USA), and then subjected to cell sorting. For the Western blot, cell lysates (equivalent to 5 µg protein) were applied to SDS-polyacrylamide gel electrophoresis. A literature method was used to determine whether representative compounds led to increases in the production of ROS [29]. In brief, CEM cells were treated with the compounds overnight, then with 6-carboxy-2′,7′-dichlorodihydrofluorescein diacetate (carboxy-H2DCFDA) and the samples were processed using flow cytometry.

HT29 colon cancer cells = assay: Cytotoxicity against HT29 colon cancer cells; assay type: cell-based, human; settings: for HT29 SI (selectivity index): IC50 CRL1790 / IC50 HT29; for IC50: 48 h
Method: as §2

[6] = MTT cytotoxicity against human gingival fibroblast (HGF); assay type: cell-based; settings: human, human gingival fibroblasts (HGF), non-malignant oral cells
Method: as §3

CEM cells [7] = assay: Mitochondrial membrane potential in CEM cells (JC-1, flow cytometry); assay type: cell-based, human; settings: 7 h
Method: The effect on the mitochondrial membrane potential in CEM cells was undertaken using a published method. In brief, the cells were incubated with different compounds for 7 h. The cells were then stained with the JC-1 dye, and the samples were examined by flow cytometry. The results are portrayed in Figure 6C.

[8] = system: HSC-4 squamous cell carcinoma cells; assay: MTT cytotoxicity against HSC-4 squamous cell carcinoma; assay type: cell-based, human; settings: for CC50: Homo sapiens, HSC-4, 48 h, MTT, read-out: HSC-4 CC50; for HSC-4 SI: average CC50 HGF/HPLF/HPC divided by CC50 HSC-4
Method: as §3

CEM cells [9] = assay: Annexin V-FITC apoptosis assay in CEM cells; assay type: cell-based, human; settings: CC50 and twice the CC50 concentrations, 24 h
Method: In order to discover if representative compounds induce apoptosis, the annexin V-FITC assay was used. In brief, CEM cells were treated with various compounds for 24 h. The cells were collected and stained with propidium iodide and annexin V-FITC.

[10] = system: HCT116 colon cancer cells; assay: Cytotoxicity against HCT116 colon cancer cells; assay type: cell-based, human; settings: for HCT116 SI (selectivity index): IC50 CRL1790 / IC50 HCT116; for IC50: 48 h
Method: as §2

[11] = system: CRL1790 non-malignant colon cells; assay: Cytotoxicity against CRL1790 non-malignant colon cells; assay type: cell-based; settings: Homo sapiens, 48 h
Method: as §2

[12] = system: HSC-2 squamous cell carcinoma cells; assay: MTT cytotoxicity against HSC-2 squamous cell carcinoma; assay type: cell-based, human; settings: for CC50: Homo sapiens, HSC-2, 48 h, MTT, read-out: HSC-2 CC50; for HSC-2 SI: average CC50 HGF/HPLF/HPC divided by CC50 HSC-2
Method: as §3

CEM cells [13] = assay: Differential DNA staining (DNS) cytotoxicity assay, CEM cells; assay type: cell-based; settings: Homo sapiens, CCRF-CEM
Method: as §1

[14] = MTT cytotoxicity against human periodontal ligament fibroblast (HPLF); assay type: cell-based; settings: human, human periodontal ligament fibroblasts (HPLF), non-malignant oral cells
Method: as §3

[15] = MTT cytotoxicity against human pulp cell (HPC); assay type: cell-based; settings: human, human pulp cells (HPC), non-malignant oral cells
Method: as §3

[16] = Average over HGF, HPLF and HPC non-malignant oral cells; assay type: cell-based, human; settings: human, HPLF and HPC non-malignant oral cells (average), average of HGF
Method: as §3

CEM cells [17] = assay: ROS production in CEM cells (carboxy-H2DCFDA, flow cytometry); assay type: cell-based, human; settings: CC50 and twice the CC50 concentrations
Method: as §4

[18] = HL-60, 24 h, read-out: CC50 HL-60 Cells 24 h
[19] = HL-60, 48 h, read-out: CC50 HL-60 Cells 48 h
[20] = 24 h, read-out: CC50 CEM Cells 24 h
[21] = 48 h, read-out: CC50 CEM Cells 48 h

SMILES | CC50 (HL-60 cells; [18]) [nM] | CC50 (HL-60 cells; [19]) [nM] | IC50 [2] [nM] | Average SI [2] | PSE (potency-selectivity expression) [2] | CC50 [3] [nM] | HSC-3 SI [3] | CC50 ([4]; Homo sapiens) [nM] | CC50 [5] [nM] | Ca9-22 SI [5] | CC50 at 48 h [6] [nM] | CC50 [8] [nM] | HSC-4 SI [8] | IC50 [11] [nM] | CC50 [12] [nM] | HSC-2 SI [12] | CC50 (CEM cells [13]; [20]) [nM] | CC50 (CEM cells [13]; [21]) [nM] | CC50 at 48 h [14] [nM] | CC50 at 48 h [15] [nM] | other results
COc1ccc2c(=O)c(/C=C/c3ccccc3)coc2c1 [7-methoxy-3-[(1E)-2-phenylethenyl]-4H-1-benzopyran-4-one] | – | – | – | – | – | – | – | – | – | – | – | – | – | – | – | – | – | – | – | – | SI (tumor specificity) [1]: 301
COc1ccc2c(=O)c(/C=C/c3ccc(O)cc3)coc2c1 [3-[(1E)-2-(4-hydroxyphenyl)ethenyl]-7-methoxy-4H-1-benzopyran-4-one] | – | – | – | – | – | – | – | – | – | – | – | – | – | – | – | – | – | – | – | – | SI (tumor specificity) [1]: 182
CN1CCN(Cc2cc(/C=C3\CNC/C(=C\c4ccc([N+](=O)[O-])cc4)C3=O)ccc2O)CC1 [Compound 3e] | 4110 | 6630 ± 680 | 330 | 48.0 | 14,546 | 470 | 12.1 | < 1000 | 330 | 17.3 | 12500 | 600 | 9.50 | 15800 ± 270 | 580 | 9.83 | 760 ± 150 | 830 ± 30 | 2700 | 1900 | CC50 [4]: 500 nM; caspase 3 activation (cleavage of PARP and procaspase) (Ca9-22 cells): induced; HT29 SI (selectivity index) (HT29 colon cancer cells): 49.4; depolarization of the mitochondrial membrane potential (CEM cells [7]): induced; apoptotic cells (CEM cells [9]): approximately 30%; HCT116 SI (selectivity index) [10]: 46.5; CC50 at 48 h [16]: 5700 nM; ROS generation (CEM cells [17]): generate ROS
COc1ccc(/C=C2\CNC/C(=C\c3ccc(O)c(CN4CCN(C)CC4)c3)C2=O)cc1OC [Compound 2f, 3-[3-(4-Methyl-1-piperazinylmethyl)-4-hydroxybenzylidene]-5-(3,4-dimethoxybenzylidene)-4-piperidone trihydrochloride] | 3750 ± 1070 | 2730 ± 570 | 720 | 17.7 | 2458 | 2470 | 6.92 | 2490 | 1940 | 8.81 | 33100 | 2730 | 6.26 | 12700 ± 310 | 2800 | 6.11 | 8910 ± 1320 | 2890 ± 200 | 12000 | 6100 | Average SI [4]: 7.03; IC50 (HT29 colon cancer cells): 760 ± 300 nM; IC50 (HT29 colon cancer cells; Homo sapiens, HT-29, 48 h): < 1000 nM; HT29 SI (selectivity index) (HT29 colon cancer cells): 16.7; IC50 [10]: 680 ± 310 nM; IC50 ([10]; Homo sapiens, HCT-116, 48 h): < 1000 nM; HCT116 SI (selectivity index) [10]: 18.7; CC50 at 48 h [16]: 17100 nM
COc1ccc(C=C2CNCC(=Cc3ccc(O)c(CN(C)C)c3)C2=O)cc1OC.Cl.Cl [Compound 2a, 3-(3,4-Dimethoxybenzylidene)-5-(3-((dimethylamino)methyl)-4-hydroxybenzylidene)-4-piperidone dihydrochloride] | 1990 ± 920 | 2210 ± 370 | 1770 | 9.91 | 560 | 1060 | 7.29 | 1080 | 680 | 11.4 | 15900 | 1390 | 5.56 | 17500 ± 580 | 1200 | 6.44 | 1640 ± 680 | 820 ± 20 | 5000 | 2300 | Average SI [4]: 7.67; caspase 3 activation (cleavage of PARP and procaspase) (Ca9-22 cells): induced; IC50 (HT29 colon cancer cells; Homo sapiens, HT-29, 48 h): 1800 ± 1240 nM; HT29 SI (selectivity index) (HT29 colon cancer cells): 9.72; depolarization of the mitochondrial membrane potential (CEM cells [7]): induced; apoptotic cells (CEM cells [9]): approximately 30%; IC50 ([10]; Homo sapiens, HCT-116, 48 h): 1730 ± 480 nM; HCT116 SI (selectivity index) [10]: 10.1; CC50 at 48 h [16]: 7730 nM; ROS generation (CEM cells [17]): generate ROS
CN1CCN(Cc2cc(/C=C3\CNC/C(=C\c4ccc(F)cc4)C3=O)ccc2O)CC1 [Compound 3b] | 5900 ± 760 | 2650 ± 430 | 270 | 46.8 | 17,333 | 950 | 10.6 | < 1000 | 550 | 18.4 | 18500 | 1140 | 8.86 | 12600 ± 240 | 910 | 11.1 | 3150 ± 1290 | 400 ± 30 | 7400 | 4300 | CC50 [4]: 890 nM; PSE (potency-selectivity expression) [4]: > 1000; HT29 SI (selectivity index) (HT29 colon cancer cells): 48.5; HCT116 SI (selectivity index) [10]: 45.0; CC50 at 48 h [16]: 10100 nM
CN1CCN(Cc2cc(/C=C3\CNC/C(=C\c4ccccc4)C3=O)ccc2O)CC1 [Compound 3a] | 8270 ± 400 | 1670 ± 540 | 370 | 60.1 | 16,243 | 490 | 11.9 | < 1000 | 430 | 13.6 | 10200 | 710 | 8.21 | 21700 ± 250 | 670 | 8.70 | 3060 ± 80 | 3320 ± 300 | 4700 | 2600 | CC50 [4]: 580 nM; PSE (potency-selectivity expression) [4]: > 1000; caspase 3 activation (cleavage of PARP and procaspase) (Ca9-22 cells): induced; depolarization of the mitochondrial membrane potential (CEM cells [7]): induced; apoptotic cells (CEM cells [9]): approximately 30%; CC50 at 48 h [16]: 5830 nM; ROS generation (CEM cells [17]): generate ROS

Reference: article PMC9572513, “Novel Unsymmetric 3,5-Bis(benzylidene)-4-piperidones That Display Tumor-Selective Toxicity” (Molecules, 2022)
